“And” between values parts separate entries of the source, which are not always exact repeats. Equal entries are not always repeated. Where two headings read alike, the source gives them in different places.
Key:
TA100 [1] = assay: Ames test, strain TA100; details: −S9
[2] = test system: S. typhimurium strain TA1535; assay: Ames test, strain TA1535; details: −S9
HepG2 [3] = details: human, 48 h, 1 mM
HEK293 [4] = details: human, 48 h, 1 mM
HEK293 [5] = details: human, 48 h, 1 mM; remark: listed apart in the source
TA98 strain = details: Salmonella typhimurium
[6] = aqueous solution; cited from earlier work
[7] = guest with Motor1; 20 mM sodium phosphate, pH = 7.4; direct UV/Vis titration (dyes) or indicator displacement
[8] = Phase-solubility of pharmaceutical agents with Motor2 (1H NMR); details: drug solubilized with Motor2; 20 mM sodium phosphate buffer (pH=7.4); phase diagram
[9] = clinical evaluation; cited from earlier work
TA1537 strain = assay: Ames test, strain TA1537
[10] = test system: S. typhimurium strain TA1535; details: Salmonella typhimurium, 10 μg/plate
TA100 [11] = details: Salmonella typhimurium, 10 μg/plate
[12] = drug with Motor1; 20 mM sodium phosphate buffer (pH=7.4); phase diagram
hERG = target: T1, hERG (Homo sapiens, UniProt Q12809); details: transfected HEK-293 cells; HP-β-CD up to 4.2 mg/mL; cited from earlier work
T1 construct: host or cells: transfected HEK-293 cells
T1 sequence (Q12809 whole entry): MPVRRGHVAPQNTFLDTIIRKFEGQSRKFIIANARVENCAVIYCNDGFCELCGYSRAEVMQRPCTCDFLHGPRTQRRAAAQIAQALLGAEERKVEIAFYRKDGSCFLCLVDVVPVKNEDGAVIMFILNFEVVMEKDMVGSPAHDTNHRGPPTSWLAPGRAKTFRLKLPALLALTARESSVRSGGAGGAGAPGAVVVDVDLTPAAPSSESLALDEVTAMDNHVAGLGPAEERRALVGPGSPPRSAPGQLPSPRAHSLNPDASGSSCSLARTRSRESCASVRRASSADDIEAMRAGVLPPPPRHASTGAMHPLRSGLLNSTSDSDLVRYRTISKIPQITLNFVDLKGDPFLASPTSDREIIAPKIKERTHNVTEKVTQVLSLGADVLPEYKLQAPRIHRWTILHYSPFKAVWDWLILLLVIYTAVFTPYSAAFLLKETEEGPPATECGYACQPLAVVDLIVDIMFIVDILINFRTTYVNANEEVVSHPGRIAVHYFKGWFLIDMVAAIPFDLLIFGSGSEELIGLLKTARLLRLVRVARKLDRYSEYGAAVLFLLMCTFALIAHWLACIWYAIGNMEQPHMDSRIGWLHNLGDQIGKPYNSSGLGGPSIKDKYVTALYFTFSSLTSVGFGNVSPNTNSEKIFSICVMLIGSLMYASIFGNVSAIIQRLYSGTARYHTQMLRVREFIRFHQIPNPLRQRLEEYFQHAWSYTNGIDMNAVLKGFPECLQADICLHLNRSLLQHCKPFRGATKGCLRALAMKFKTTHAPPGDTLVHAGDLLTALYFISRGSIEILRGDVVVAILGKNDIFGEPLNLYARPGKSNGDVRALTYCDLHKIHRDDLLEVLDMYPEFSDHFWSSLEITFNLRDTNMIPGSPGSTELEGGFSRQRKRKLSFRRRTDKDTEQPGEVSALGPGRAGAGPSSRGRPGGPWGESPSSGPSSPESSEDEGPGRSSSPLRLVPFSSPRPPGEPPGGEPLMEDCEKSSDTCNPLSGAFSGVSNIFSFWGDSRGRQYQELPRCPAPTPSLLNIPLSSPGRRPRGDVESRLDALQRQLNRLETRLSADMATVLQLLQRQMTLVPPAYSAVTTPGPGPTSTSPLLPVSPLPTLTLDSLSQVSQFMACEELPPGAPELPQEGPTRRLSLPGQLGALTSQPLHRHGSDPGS

HepG2 [13] = assay: AK (adenylate kinase) release cytotoxicity assay, HepG2; type: cell-based, human; details: 1 mM, untreated population 60%
[14] = Motor2 toward drug; 1:1 inclusion complex; Ka=Slope/[S0(1−Slope)]
MCF-7 = assay: In vitro bioactivity of Paclitaxel complexed with Motor1, MCF-7; type: cell-based; details: Paclitaxel 0.6 mM complexed, Paclitaxel 0.002 mM alone, Motor1 5 mM alone
[15] = Motor1 toward drug; 1:1 inclusion complex; Ka=Slope/[S0(1−Slope)]
Hela = assay: In vitro bioactivity of Paclitaxel complexed with Motor1, Hela; type: cell-based; details: Paclitaxel 0.6 mM complexed, Paclitaxel 0.002 mM alone, Motor1 5 mM alone
[16] = mouse, in vivo, iv, 3.2 mg/kg
[17] = mouse, in vivo
[18] = Pharmacokinetic study of Motor1.ABZ, IV route (plasma, HPLC); details: for plasma concentration: IV
[19] = Pharmacokinetic study of Motor1.ABZ, IP route (plasma, HPLC); details: for plasma concentration: IP
[20] = IV Route, Motor1.ABZ (681 and 3.2 mg/kg)

Q: For `[N-]=[N+]=[N-]` [sodium azide], which “revertant colonies, positive control” value (TA100 [1]) is on record?
A: 167 colonies

Q: And the “revertant colonies, positive control” value [2]?
A: 232 colonies

Q: Which results are given for `CC[C@H]1OC(=O)[C@H](C)[C@@H](O[C@H]2C[C@@](C)(OC)[C@@H](O)[C@H](C)O2)[C@H](C)[C@@H](O[C@@H]2O[C@H](C)C[C@H](N(C)C)[C@H]2O)[C@](C)(O)C[C@@H](C)C(=O)[C@H](C)[C@@H](O)[C@]1(C)O` [Erythromycin]?
A: cell viability (MTS) (HepG2 [3]): 36%; cell viability (MTS) (HEK293 [4]): 47%; cell death (AK) (HEK293 [5]): 25%

Q: For `COc1cccc2c1C(=O)c1c(O)c3c(c(O)c1C2=O)C[C@@](O)(C(C)=O)C[C@@H]3O[C@H]1C[C@H](N)[C@H](O)[C@H](C)O1` [Daunomycin], which “revertant colonies, positive control” value (TA98 strain; 6 μg/plate) is on record?
A: 361 colonies

Q: For `O=C1N2CN3C(=O)N4CN5C(=O)N6CN7C(=O)N8CN9C(=O)N%10CN%11C(=O)N%12CN%13C(=O)N%14CN1C1C2N2CN%15C(=O)N(CN%16C(=O)N(CN%17C(=O)N(CN%18C(=O)N(CN%19C(=O)N(CN%20C(=O)N(CN1C2=O)C%14C%13%20)C%12C%11%19)C%10C9%18)C8C7%17)C6C5%16)C4C3%15` (stereo not drawn) [CB[7]], which Solubility [6] is on record?
A: ≈ 20 mM

Q: For `NCCCCN` [butane-1,4-diamine], which Ka [7] is on record?
A: 1.2 ± 0.1 × 10^5

Q: Which Solubility enhancement [8] does the source give for `Cc1c(Cl)cccc1Nc1ccccc1C(=O)O` [tolfenamic acid] here?
A: 37 fold

Q: Which “effects on QT interval” value [9] does the source give for `O=C(O)CCSC[C@H]1O[C@@H]2O[C@H]3[C@H](O)[C@@H](O)[C@@H](O[C@H]4[C@H](O)[C@@H](O)[C@@H](O[C@H]5[C@H](O)[C@@H](O)[C@@H](O[C@H]6[C@H](O)[C@@H](O)[C@@H](O[C@H]7[C@H](O)[C@@H](O)[C@@H](O[C@H]8[C@H](O)[C@@H](O)[C@@H](O[C@H]9[C@H](O)[C@@H](O)[C@@H](O[C@H]1[C@H](O)[C@H]2O)O[C@@H]9CSCCC(=O)O)O[C@@H]8CSCCC(=O)O)O[C@@H]7CSCCC(=O)O)O[C@@H]6CSCCC(=O)O)O[C@@H]5CSCCC(=O)O)O[C@@H]4CSCCC(=O)O)O[C@@H]3CSCCC(=O)O` [sugammadex] here?
A: no relevant effects

Q: Which “revertant colonies, positive control” value (TA1537 strain; +S9) does the source give for `Nc1ccc2cc3ccccc3cc2c1` [2-aminoanthracene] here?
A: 122 colonies

Q: What about the “revertant colonies, positive control” value [10] of the same molecule?
A: 27 colonies

Q: What about the “revertant colonies, positive control” value (TA100 [11]) of the same molecule?
A: 1345 colonies

Q: What about the “revertant colonies, positive control” value (TA98 strain; 10 μg/plate) of the same molecule?
A: 1084 colonies

Q: For `CN(C)c1ccc(C(=C2C=CC(=[N+](C)C)C=C2)c2ccc(N(C)C)cc2)cc1` [Crystal Violet Dye, Crystal Violet], which Ka [7] is on record?
A: 5.2 ± 0.8 × 10^6

Q: With `COC(=O)[C@H](c1ccccc1Cl)N1CCc2sccc2C1` [Clopidogrel] as the molecule, how does the Solubility enhancement [12] read?
A: 1220 fold

Q: Which Solubility enhancement [8] does the source give for `CC[C@@]1(O)C(=O)OCc2c1cc1n(c2=O)Cc2cc3ccccc3nc2-1` [S-camptothecin] here?
A: 580 fold

Q: For `C[N+](C)(C)CCOC(=O)CCC(=O)OCC[N+](C)(C)C` [succinyl choline], which Ka [7] is on record?
A: 1.9 ± 0.1 × 10^5

Q: Which “interference with the hERG” value (hERG) does the source give for hydroxypropyl-β-CD [HP-β-CD] here?
A: significant, non-dose dependent interference

Q: Which “revertant colonies, positive control” value (TA1537 strain; −S9) does the source give for `COc1ccc2nc3cc(Cl)ccc3c(NCCCNCCCl)c2c1` [ICR 191 Acridine] here?
A: 91 colonies

Q: What does the source list for `CCC(=O)O[C@H]1[C@H](O[C@@H]2[C@@H](C)[C@H](O[C@H]3C[C@@](C)(OC)[C@@H](O)[C@H](C)O3)[C@@H](C)C(=O)O[C@H](CC)[C@@](C)(O)[C@H](O)[C@@H](C)C(=O)[C@H](C)C[C@@]2(C)O)O[C@H](C)C[C@@H]1N(C)C` [erythromycin estolate]?
A: cell viability (MTS) (HepG2 [3]): 10%; cell viability (MTS) (HEK293 [4]): 11%; cell death (AK) (HEK293 [5]): 49%; cell death (AK) (HepG2 [13]): 100%

Q: Which Ka [14] does the source give for `CC(=O)O[C@H]1C(=O)[C@@]2(C)[C@H]([C@H](OC(=O)c3ccccc3)[C@]3(O)C[C@H](OC(=O)[C@H](O)[C@@H](NC(=O)c4ccccc4)c4ccccc4)C(C)=C1C3(C)C)[C@]1(OC(C)=O)CO[C@@H]1C[C@@H]2O` [Taxol] here?
A: 31000 M⁻¹

Q: What about the “DNA fragmentation and cell death in comparison to untreated” value (MCF-7) of the same molecule?
A: little to no cell death

Q: And the Solubility enhancement [12]?
A: 2750 fold

Q: What about the Ka [15] of the same molecule?
A: 19000 M⁻¹

Q: And the “DNA fragmentation and cell death in comparison to untreated” value (Hela)?
A: little to no cell death

Q: With `COc1ccc2c(c1)c(CC(=O)O)c(C)n2C(=O)c1ccc(Cl)cc1` [indomethacin] as the molecule, how does the Solubility enhancement [8] read?
A: 56 fold

Q: What does the source list for `CCCS(=O)(=O)c1ccc2nc(NC(=O)OC)[nH]c2c1` [ABZSO2, albendazole sulfone]?
A: tmax [16]: 2 h; Absolute Bioavailability (%) [17]: 81%; tmax ([17]; ip, 3.2 mg/kg): 2 h

Q: With `N[C@@H](Cc1ccc(N(CCCl)CCCl)cc1)C(=O)O` [Melphalan] as the molecule, how does the Solubility enhancement [12] read?
A: 655 fold

Q: Which Solubility enhancement [12] does the source give for `C(=C\c1ccccc1)/CN1CCN(C(c2ccccc2)c2ccccc2)CC1` [Cinnarizine] here?
A: 354 fold

Q: Which results are given for `CCC[S+]([O-])c1ccc2[nH]c(NC(=O)OC)nc2c1` (stereo not drawn) [ABZSO, albendazole sulfoxide]?
A: AUC [18, 20]: 14300 ng·h/mL; tmax [18, 20]: 0.5 h; Cmax ([18]; IV Route, one injection of Motor1.ABZ (681 and 3.2 mg/kg), plasma): 4340 ng/mL; plasma concentration ([18]; t = 5 min, individual mice (duplicates a, b)): 2310 ng/mL and 2970 ng/mL and 1930 ng/mL and 1840 ng/mL and 2740 ng/mL and 2630 ng/mL and 2030 ng/mL and 2070 ng/mL and 2330 ng/mL; plasma concentration ([18]; t = 15 min, individual mice): 3360 ng/mL and 3370 ng/mL and 3100 ng/mL and 2900 ng/mL and 3880 ng/mL and 3580 ng/mL; plasma concentration ([18]; t = 30 min, individual mice): 4800 ng/mL and 4210 ng/mL and 4100 ng/mL and 3740 ng/mL and 4240 ng/mL; plasma concentration ([18]; t = 2 h, individual mice): 2110 ng/mL and 1590 ng/mL and 2100 ng/mL and 2490 ng/mL and 2810 ng/mL and 2400 ng/mL; plasma concentration ([18]; t = 4 h, individual mice): 923 ng/mL and 821 ng/mL and 777 ng/mL and 650 ng/mL; plasma concentration ([18]; t = 8 h, individual mice): 404 ng/mL and 433 ng/mL and 510 ng/mL and 475 ng/mL; plasma concentration ([18]; t = 16 h, individual mice): 30 ng/mL and 47 ng/mL and 52 ng/mL and 72 ng/mL and 42 ng/mL; concentration at 5 min ([18]; Swiss Webster, mouse, in vivo, iv, plasma concentration, t = 5 min, individual mice (duplicates a, b)): 2880 ng/mL; concentration at 15 min ([18]; Swiss Webster, mouse, in vivo, iv, plasma concentration, t = 15 min, individual mice): 3490 ng/mL; concentration at 30 min ([18]; Swiss Webster, mouse, in vivo, iv, plasma concentration, t = 30 min, individual mice): 3960 ng/mL; concentration at 2 h ([18]; Swiss Webster, mouse, in vivo, iv, plasma concentration, t = 2 h, individual mice): 1590 ng/mL; concentration at 4 h ([18]; Swiss Webster, mouse, in vivo, iv, plasma concentration, t = 4 h, individual mice): 614 ng/mL; concentration at 8 h ([18]; Swiss Webster, mouse, in vivo, iv, plasma concentration, t = 8 h, individual mice): 330 ng/mL; Absolute Bioavailability (%) ([19]; IP Route relative to IV): 43%; AUC ([19]; IP Route, Motor1.ABZ (681 and 3.2 mg/kg)): 6150 ng·h/mL; Cmax ([19]; IP Route, one injection of Motor1.ABZ (681 and 3.2 mg/kg), plasma): 2620 ng/mL; tmax ([19]; IP administration, Motor1.ABZ (681 and 3.2 mg/kg)): 0.25 h; plasma concentration ([19]; t = 5, individual mice): 298 ng/mL and 400 ng/mL and 817 ng/mL and 816 ng/mL and 600 ng/mL; plasma concentration ([19]; t = 15 min, individual mice): 2460 ng/mL and 2160 ng/mL and 2910 ng/mL and 2934 ng/mL; plasma concentration ([19]; t = 30 min, individual mice): 2350 ng/mL and 2650 ng/mL and 2320 ng/mL and 2480 ng/mL; plasma concentration ([19]; t = 2 h, individual mice): 1060 ng/mL and 564 ng/mL and 463 ng/mL and 764 ng/mL and 888 ng/mL; plasma concentration ([19]; t = 4 h, individual mice): 417 ng/mL and 361 ng/mL and 431 ng/mL and 91 ng/mL; plasma concentration ([19]; t = 8 h, individual mice): 158 ng/mL and 131 ng/mL; concentration at 15 min ([19]; Swiss Webster, mouse, in vivo, ip, plasma concentration, t = 15 min, individual mice): 2820 ng/mL; concentration at 30 min ([19]; Swiss Webster, mouse, in vivo, ip, plasma concentration, t = 30 min, individual mice): 3050 ng/mL; concentration at 8 h ([19]; Swiss Webster, mouse, in vivo, ip, plasma concentration, t = 8 h, individual mice): 183 ng/mL; concentration at 16 h ([19]; Swiss Webster, mouse, in vivo, ip, plasma concentration, t = 16 h, individual mice): 44 ng/mL

Q: Which Ka [7] does the source give for `Nc1ccc(N)cc1` [benzene-1,4-diamine] here?
A: 3.5 ± 0.2 × 10^5

— patent publication US9566351B2, “Molecular containers and methods of making and using same” (University of Maryland, College Park, priority 2010, dated 2017)
